In one test the target is T1, M4 muscarinic receptor (Homo sapiens, UniProt P08173).
T1 construct: expressed in transfected cells; host or cells: CHO (M4-CHO)
T1 sequence (P08173 1-479): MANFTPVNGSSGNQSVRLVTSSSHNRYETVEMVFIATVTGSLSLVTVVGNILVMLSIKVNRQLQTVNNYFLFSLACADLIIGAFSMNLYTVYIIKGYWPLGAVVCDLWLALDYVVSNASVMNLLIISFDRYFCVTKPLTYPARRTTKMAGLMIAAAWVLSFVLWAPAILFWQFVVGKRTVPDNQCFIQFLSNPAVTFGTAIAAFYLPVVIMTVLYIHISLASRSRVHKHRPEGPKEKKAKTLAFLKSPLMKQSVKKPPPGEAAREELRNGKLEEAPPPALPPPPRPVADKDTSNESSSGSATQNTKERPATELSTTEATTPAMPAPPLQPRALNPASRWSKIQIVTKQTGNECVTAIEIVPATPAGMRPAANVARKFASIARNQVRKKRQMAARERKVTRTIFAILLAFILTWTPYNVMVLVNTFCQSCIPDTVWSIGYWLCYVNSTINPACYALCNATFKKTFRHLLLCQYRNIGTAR
Put plainly: Functional mobilization of intracellular calcium (FLIPR), M4-CHO cells. In kind it is cell-based. The settings on record: for Emax: 100% efficacy is the maximum response obtained using Carbachol as a control; for M4 Activity: M4-CHO cells, FLIPR calcium mobilization. The method in brief: (§1)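 Calcium flux recorded 60 s (ex 488, em 540 nm) in dye-loaded M1- or M4-CHO cells in pH 7.4 buffer with 1 mM probenecid. Inhibition measured against carbachol EC80 after 15 min compound pre-incubation or co-addition; agonism measured by compound addition alone. Final DMSO 0.5%.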

The next test addresses T2, M1 muscarinic receptor (Homo sapiens, UniProt P11229).
T2 construct: expressed in transfected cells; host or cells: CHO (M1-CHO)
T2 sequence (P11229 1-460): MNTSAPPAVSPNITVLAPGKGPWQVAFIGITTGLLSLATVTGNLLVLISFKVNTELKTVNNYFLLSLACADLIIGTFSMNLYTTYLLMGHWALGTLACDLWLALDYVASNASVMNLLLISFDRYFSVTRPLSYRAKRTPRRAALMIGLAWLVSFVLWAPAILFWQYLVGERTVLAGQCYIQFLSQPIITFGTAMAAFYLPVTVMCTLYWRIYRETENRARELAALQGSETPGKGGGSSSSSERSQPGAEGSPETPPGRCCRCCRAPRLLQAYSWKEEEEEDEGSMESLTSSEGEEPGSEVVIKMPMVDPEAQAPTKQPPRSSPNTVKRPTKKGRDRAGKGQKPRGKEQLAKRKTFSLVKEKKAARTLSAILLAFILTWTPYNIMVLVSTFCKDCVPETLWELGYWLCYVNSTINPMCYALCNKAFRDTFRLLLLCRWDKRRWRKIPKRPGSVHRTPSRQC
Put plainly: Functional mobilization of intracellular calcium (FLIPR), M1-CHO cells. The format is cell-based. The settings on record: for Emax: 100% efficacy is the maximum response obtained using Carbachol as a control; for M1 Activity: M1-CHO cells, FLIPR calcium mobilization. In a few lines:
as §1
Background: A change in cytosolic calcium serves as a functional read-out for many receptors and channels.

For `CC(=O)N1Cc2ccccc2C2(CCN(CC3CCN(C(=O)OC4CCC4)CC3)CC2)C1` [compound 291], on M4 muscarinic receptor, the Emax is less than 25% and the “M4 Activity” value is on record as “+ (activity was measured to be greater than 5.0 μM)”. Moreover, at M1 muscarinic receptor, the Emax was less than 25% and the “M1 Activity” value was “+ (activity was measured to be greater than 5.0 μM)”.
As for `CC(=O)N1Cc2ccccc2C2(CCN(C3CCCCC3)CC2)C1` [compound 294], on M4 muscarinic receptor, the Emax is 25 to 100% and the “M4 Activity” value is on record as “+++ (activity was measured to be less than 1.0 μM)”. Further, on M1 muscarinic receptor, the Emax was 25 to 100% and the “M1 Activity” value is listed as “+++ (activity was measured to be less than 1.0 μM)”.
`CCOC(=O)N1CCC(N2CCC3(CC2)CN(C(=O)C2(C)CC2)Cc2ccccc23)CC1` [compound 295]: at M4 muscarinic receptor, the Emax was less than 25% and the “M4 Activity” value is given as “++ (activity was measured to be from 1.0 μM to 5.0 μM)”. Also, on M1 muscarinic receptor, the Emax was in the range of 25 to 100% and the “M1 Activity” value is listed as “++ (activity was measured to be from 1.0 μM to 5.0 μM)”.
`CCCNC(=O)N1Cc2ccccc2C2(CCN(C3CCN(C(=O)OCC)CC3)CC2)C1` [compound 296]: on M4 muscarinic receptor, the Emax fell in the range of 25 to 100% and the “M4 Activity” value is “+++ (activity was measured to be less than 1.0 μM)”. In addition, on M1 muscarinic receptor, the maximal response (Emax) fell in the range of 25 to 100% and the “M1 Activity” value was “+++ (activity was measured to be less than 1.0 μM)”.
Turning to `CC(=O)N1Cc2ccccc2C2(CCN(Cc3ccccc3O)CC2)C1` [compound 297], at M4 muscarinic receptor, the Emax was less than 25% and the “M4 Activity” value is “+ (activity was measured to be greater than 5.0 μM)”. At M1 muscarinic receptor, the Emax was less than 25% and the “M1 Activity” value is recorded as “+ (activity was measured to be greater than 5.0 μM)”.
As to `CC(=O)N1Cc2ccccc2C2(CCN(Cc3sc(C)nc3C)CC2)C1` [compound 301], on M4 muscarinic receptor, the Emax is less than 25% and the “M4 Activity” value is given as “+ (activity was measured to be greater than 5.0 μM)”. Moreover, on M1 muscarinic receptor, the Emax was less than 25% and the “M1 Activity” value was “+ (activity was measured to be greater than 5.0 μM)”.
In the case of `CC(=O)N1Cc2ccccc2C2(CCN(C3CCN(C(=O)O[C@H]4CCOC4)CC3)CC2)C1` [compound 302], on M4 muscarinic receptor, the Emax was in the range of 25 to 100% and the “M4 Activity” value is reported as “+++ (activity was measured to be less than 1.0 μM)”. Also, on M1 muscarinic receptor, the Emax lay in the range of 25 to 100% and the “M1 Activity” value is reported as “+++ (activity was measured to be less than 1.0 μM)”.
Regarding `CCOC(=O)N1CCC(CN2CCC3(CC2)CN(C(=O)OC(C)C)Cc2ccccc23)CC1` [compound 309], at M4 muscarinic receptor, the Emax lay in the range of 25 to 100% and the “M4 Activity” value is “+++ (activity was measured to be less than 1.0 μM)”. Further, at M1 muscarinic receptor, the Emax lay in the range of 25 to 100% and the “M1 Activity” value is given as “+++ (activity was measured to be less than 1.0 μM)”.
As for `CCOC(=O)N1CCC(N2CCC3(CC2)CN(S(C)(=O)=O)Cc2ccccc23)CC1` [compound 311], on M4 muscarinic receptor, the Emax fell in the range of 25 to 100% and the “M4 Activity” value is recorded as “+++ (activity was measured to be less than 1.0 μM)”. Besides, at M1 muscarinic receptor, the Emax was in the range of 25 to 100% and the “M1 Activity” value is listed as “+++ (activity was measured to be less than 1.0 μM)”.
For `CC(=O)N1Cc2ccccc2C2(CCN(Cc3ccc(F)cc3F)CC2)C1` [compound 312], on M4 muscarinic receptor, the Emax is less than 25% and the “M4 Activity” value is reported as “+ (activity was measured to be greater than 5.0 μM)”. At M1 muscarinic receptor, the Emax is less than 25% and the “M1 Activity” value is given as “+ (activity was measured to be greater than 5.0 μM)”.
Turning to `CCOC(=O)N1CCC(N2CCC3(CC2)CN(CCC(C)C)Cc2ccccc23)CC1` [compound 313, ethyl 4-(2-isopentyl-2,3-dihydro-1H-spiro[isoquinoline-4,4′-piperidine]-1′-yl)piperidine-1-carboxylate], at M4 muscarinic receptor, the Emax was 25 to 100% and the “M4 Activity” value is “+++ (activity was measured to be less than 1.0 μM)”. Further, on M1 muscarinic receptor, the Emax was more than 100% and the “M1 Activity” value is listed as “+++ (activity was measured to be less than 1.0 μM)”.
In the case of `CCOC(=O)N1CCC(N2CCC3(CC2)OC(=O)c2ccccc23)CC1` [compound 314, ethyl 4-(3-oxo-3H-spiro[isobenzofuran-1,4′-piperidine]-1′-yl)piperidine-1-carboxylate], on M4 muscarinic receptor, the Emax was in the range of 25 to 100% and the “M4 Activity” value is given as “+++ (activity was measured to be less than 1.0 μM)”. On M1 muscarinic receptor, the Emax lay within 25 to 100% and the “M1 Activity” value is recorded as “+++ (activity was measured to be less than 1.0 μM)”.
Consider `CCOC(=O)N1CCC(CN2CCC3(CC2)CN(C(=O)OC2CCC2)Cc2ccccc23)CC1` [compound 315], for which, on M4 muscarinic receptor, the Emax lay within 25 to 100% and the “M4 Activity” value is recorded as “+++ (activity was measured to be less than 1.0 μM)”. For the same molecule, at M1 muscarinic receptor, the Emax is 25 to 100% and the “M1 Activity” value is given as “+++ (activity was measured to be less than 1.0 μM)”.
In the case of `CCOC(=O)N1C2CCC1CC(N1CCC3(CC1)CN(S(=O)(=O)c1cccs1)Cc1ccccc13)C2` (centres unmarked) [compound 316], on M4 muscarinic receptor, the Emax lay within 25 to 100% and the “M4 Activity” value was “+++ (activity was measured to be less than 1.0 μM)”. At M1 muscarinic receptor, the Emax lay within 25 to 100% and the “M1 Activity” value was “+++ (activity was measured to be less than 1.0 μM)”.
As to `CC(C)OC(=O)N1C2CCC1CC(N1CCC3(CC1)CN(C(=O)N(C)C)Cc1ccccc13)C2` (centres unmarked) [compound 317], on M4 muscarinic receptor, the Emax fell in the range of 25 to 100% and the “M4 Activity” value was “+++ (activity was measured to be less than 1.0 μM)”. Also, on M1 muscarinic receptor, the Emax fell in the range of 25 to 100% and the “M1 Activity” value is “+++ (activity was measured to be less than 1.0 μM)”.
For the molecule `CCOC(=O)N1C2CCC1CC(N1CCC3(CC1)CN(C(=O)c1ccno1)Cc1ccccc13)C2` (centres unmarked) [compound 318], at M4 muscarinic receptor, the Emax was in the range of 25 to 100% and the “M4 Activity” value is given as “+++ (activity was measured to be less than 1.0 μM)”. On M1 muscarinic receptor, the Emax was 25 to 100% and the “M1 Activity” value is listed as “+++ (activity was measured to be less than 1.0 μM)”.
For the molecule `CCOC(=O)N1C2CCC1CC(N1CCC3(CC1)CN(C(=O)C1CCC1)Cc1ccccc13)C2` (centres unmarked) [compound 319], on M4 muscarinic receptor, the Emax lay within 25 to 100% and the “M4 Activity” value is recorded as “+++ (activity was measured to be less than 1.0 μM)”. At M1 muscarinic receptor, the Emax was in the range of 25 to 100% and the “M1 Activity” value is on record as “+++ (activity was measured to be less than 1.0 μM)”.
For the molecule `CCOC(=O)N1CC[C@H](CN2CCC3(CC2)CN(C(C)=O)Cc2ccccc23)C1` [compound 320], at M4 muscarinic receptor, the Emax fell in the range of 25 to 100% and the “M4 Activity” value was “+++ (activity was measured to be less than 1.0 μM)”. Besides, on M1 muscarinic receptor, the Emax was in the range of 25 to 100% and the “M1 Activity” value was “+++ (activity was measured to be less than 1.0 μM)”.
On to `CCOC(=O)N1C2CCC1CC(N1CCC3(CC1)CN(C(=O)NC1CCCC1)Cc1ccccc13)C2` (centres unmarked) [compound 321], for which, on M4 muscarinic receptor, the Emax was 25 to 100% and the “M4 Activity” value was “+++ (activity was measured to be less than 1.0 μM)”. At M1 muscarinic receptor, the Emax lay in the range of 25 to 100% and the “M1 Activity” value is reported as “+++ (activity was measured to be less than 1.0 μM)”.
`CC(=O)N1Cc2ccccc2C2(CCN(Cc3ccccc3C#N)CC2)C1` [compound 322]: at M4 muscarinic receptor, the Emax is less than 25% and the “M4 Activity” value was “+ (activity was measured to be greater than 5.0 μM)”. Further, at M1 muscarinic receptor, the Emax was less than 25% and the “M1 Activity” value is “+ (activity was measured to be greater than 5.0 μM)”.
As for `CSC(C)CCN1CCC2(CC1)NC(=O)c1ccccc12` (centres unmarked) [compound 323], at M4 muscarinic receptor, the maximum response (Emax) was less than 25% and the “M4 Activity” value is on record as “+ (activity was measured to be greater than 5.0 μM)”. On M1 muscarinic receptor, the maximal response (Emax) was less than 25% and the “M1 Activity” value was “+ (activity was measured to be greater than 5.0 μM)”.
Regarding `CCOC(=O)N1C2CCC1CC(N1CCC3(CC1)CN(S(=O)(=O)c1cccc(F)c1)Cc1ccccc13)C2` (centres unmarked) [compound 324], on M4 muscarinic receptor, the Emax fell in the range of 25 to 100% and the “M4 Activity” value was “+++ (activity was measured to be less than 1.0 μM)”. For the same molecule, on M1 muscarinic receptor, the Emax was 25 to 100% and the “M1 Activity” value was “+++ (activity was measured to be less than 1.0 μM)”.
As to `CCCC1CCC(N2CCC3(CC2)CN(C(C)=O)Cc2ccccc23)CC1` (centres unmarked) [compound 326], on M4 muscarinic receptor, the Emax was 25 to 100% and the “M4 Activity” value is recorded as “+++ (activity was measured to be less than 1.0 μM)”. Further, on M1 muscarinic receptor, the Emax was in the range of 25 to 100% and the “M1 Activity” value is given as “+++ (activity was measured to be less than 1.0 μM)”.

A word on the Emax: it is the maximal effect, on the per cent scale that the assay sets.

For the origin of these results see patent US7863449B2, “Modulators of muscarinic receptors” (Vertex Pharmaceuticals Incorporated, priority 2004, dated 2011).
